# Reference: publication PMC7027018 (BMC Chemistry, 2020)
# Molecular target: T1, hMAO-B (Homo sapiens, UniProt P27338)
# T1 construct: purchased Sigma-Aldrich; host or cells: insect cells (BTI-TN-5B14), recombinant baculovirus
# T1 sequence (P27338 1-520): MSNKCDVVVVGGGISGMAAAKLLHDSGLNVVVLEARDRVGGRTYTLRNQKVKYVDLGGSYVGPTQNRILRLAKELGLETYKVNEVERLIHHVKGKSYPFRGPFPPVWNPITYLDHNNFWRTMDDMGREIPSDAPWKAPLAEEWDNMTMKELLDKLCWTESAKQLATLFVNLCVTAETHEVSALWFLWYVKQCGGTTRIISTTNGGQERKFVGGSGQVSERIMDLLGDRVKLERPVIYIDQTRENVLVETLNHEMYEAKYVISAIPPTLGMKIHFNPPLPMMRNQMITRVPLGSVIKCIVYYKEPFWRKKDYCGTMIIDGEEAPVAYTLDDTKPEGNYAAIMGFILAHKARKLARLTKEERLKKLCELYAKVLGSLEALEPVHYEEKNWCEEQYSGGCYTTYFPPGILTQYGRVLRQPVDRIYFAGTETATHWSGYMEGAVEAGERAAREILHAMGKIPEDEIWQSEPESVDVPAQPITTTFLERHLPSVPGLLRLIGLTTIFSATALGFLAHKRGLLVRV
# Assay: hMAO-B inhibitory activity, Amplex Red continuous fluorometric assay
# Assay type: biochemical
# Settings: IC50 (MAO-A)/IC50 (MAO-B)
# Protocol: (§1) The synthesized derivatives were screened for the hMAO-A and hMAO-B inhibitory activities by using an extremely sensitive continuous fluorometric assay containing Amplex Red (10-acetyl-3, 7-dihydroxyphenoxazine) reagent. The enzymatic H2O2 was measured with and without extracts or standards.
# (§2) Unless otherwise noted, the analytical grade chemicals required for synthesis and antioxidant activity procured from Sigma Aldrich, Merck, Hi-media Laboratories. The analytical assessment of the synthesized derivatives for hMAO inhibition was measured by their effects on the generation of hydrogen peroxide (H2O2) by p-tyramine (a general substrate for both MAO isoforms), utilizing the Amplex Red MAO assay kit (Sigma USA) and microsomal MAO enzymes extracted by insect cells (BTI-TN-5B14) expressed on recombinant baculovirus containing cDNA probes for MAO isoforms (Sigma-Aldrich USA) were used as source for the two microsomal MAO isoforms. The progress of the reaction was cheeked through thin layer chromatography TLC executed on 0.25 mm pre-coated plates with silica gel procured from Merck, and the spots were envisaged in iodine chamber and UV cabinet, in mobile media TLC-hexane:toluene:ethyl acetate (1:1:1). Melting points were recorded on Sonar melting point apparatus in open capillary tubes. The nuclear magnetic resonance (NMR) spectra 1H NMR and ^13C NMR spectra were determined in DMSO and deuterated CDCl3 respectively on a spectrometer (Model: Bruker Avance II 400 NMR). Coupling constants J are in hertz (Hz) (Additional file 1). Spectral data for infrared (IR) was confirmed on Perkin Elmer FTIR spectrophotometer by using KBr pellets technique.
# (§3) Human MAO-A and -B recombinant enzymes (Sigma-Aldrich) 5 mg ml^−1 were pre-aliquoted and placed at − 70 °C. The interactions of the titled compounds with hMAO isoforms were evaluated through a fluorimetric method based on the H2O2 formation rendered by MAO isoforms was identified by utilizing the non-fluorescent, extremely susceptible and stable probe Amplex®-Red reagent (10-acetyl-3,7-dihydroxyphenoxazine), which reacts with H2O2 in the existence of horseradish peroxidase to generate resorufin which is a fluorescent component. […] By the incubation time, the reaction was initiated via the addition of 200 μM Amplex Red reagent, 1 mM p-tyramine (general substrate for both MAO isoforms) and 1 U ml^−1 horseradish peroxidase (HRP). […] The calculation of specific fluorescence emission (used to obtain the final results) was carried out by subtraction of background action that was identified by the cuvettes comprising all reagents except the MAO isoforms, which were changed by a sodium phosphate buffer solution. The preparation of stock solutions and all reagents was done newly each day in deionized water and kept at − 20 °C. Data were processed in Microsoft Excel, to calculate IC50 values.
# (§4) The enzymatic kinetic factors maximum reaction rate (Vmax) and Michaelis–Menten constant (Km) were computed by GraphPad Prism Software 6.02 (San Diego, CA, USA). The IC50 values were determined by nonlinear regression best fit model of normalized response with variable slope. Lineweaver–Burk plot was obtained from Michaelis–Menten data. The Michaelis–Menten constant (Km) is the concentration of […]. Relative selectivity (RS) folds were defined by the ratio of hMAO-A IC50 to hMAO-B IC50. The inhibition mechanism was identified by the double reciprocal plot (Lineweaver–Burk curves) by plotting the inverse of the substrate concentration (1/S) as a function against the inverse of initial velocity (1/V).
row,Selectivity index,Structure (SMILES)
1,0.294,O=C(/C=C/C=C/c1ccc2c(c1)OCO2)Nc1cccc2ccccc12 [Compound 7]
2,0.609,C=CCc1ccc(OC(=O)/C=C/C=C/c2ccc3c(c2)OCO3)c(OC)c1 [Compound 17c]

# More lines, now with the values behind:
row,Structure (SMILES),Selectivity index
1,"O=C(/C=C/C=C/c1ccc2c(c1)OCO2)N1CCCCC1 [Piperine, reference compound]",1.081
2,O=C(/C=C/C=C/c1ccc2c(c1)OCO2)Nc1ccc(Br)cc1 [Compound 5],4.241

# Same assay, conditions: recombinant hMAO-B, p-tyramine substrate, Amplex Red; mean SEM
row,IC50 [µM],Structure (SMILES)
1,52.2 ± 0.006,O=C(/C=C/C=C/c1ccc2c(c1)OCO2)Nc1cccc2ccccc12 [Compound 7]
2,26.44 ± 0.063,C=CCc1ccc(OC(=O)/C=C/C=C/c2ccc3c(c2)OCO3)c(OC)c1 [Compound 17c]

# Second part, the compound before the results:
row,Structure (SMILES),IC50 [µM]
1,"O=C(/C=C/C=C/c1ccc2c(c1)OCO2)N1CCCCC1 [Piperine, reference compound]",17.57 ± 0.037
2,O=C(/C=C/C=C/c1ccc2c(c1)OCO2)N1CCOCC1 [Compound 9],71.01 ± 0.005
3,O=C(/C=C/C=C/c1ccc2c(c1)OCO2)Nc1ccc(Br)cc1 [Compound 5],14.19 ± 0.007

# Molecular target: T2, hMAO-A (Homo sapiens, UniProt P21397)
# T2 construct: purchased Sigma-Aldrich; host or cells: insect cells (BTI-TN-5B14), recombinant baculovirus
# T2 sequence (P21397 1-527): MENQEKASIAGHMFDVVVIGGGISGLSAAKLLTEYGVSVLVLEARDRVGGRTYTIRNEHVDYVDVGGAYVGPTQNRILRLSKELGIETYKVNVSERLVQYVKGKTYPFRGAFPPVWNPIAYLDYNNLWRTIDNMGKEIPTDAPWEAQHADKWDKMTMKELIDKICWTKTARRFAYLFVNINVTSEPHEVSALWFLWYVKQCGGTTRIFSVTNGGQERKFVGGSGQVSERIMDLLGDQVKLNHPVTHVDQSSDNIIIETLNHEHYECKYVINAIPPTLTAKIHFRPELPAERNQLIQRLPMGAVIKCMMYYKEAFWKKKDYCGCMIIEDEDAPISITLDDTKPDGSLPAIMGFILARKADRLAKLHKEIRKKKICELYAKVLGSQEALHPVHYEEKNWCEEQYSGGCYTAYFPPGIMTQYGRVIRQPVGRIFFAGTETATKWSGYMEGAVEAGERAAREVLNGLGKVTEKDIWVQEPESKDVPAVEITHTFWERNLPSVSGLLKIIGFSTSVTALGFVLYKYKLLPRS
# Assay: Kinetic study (Lineweaver-Burk) of hMAO-A inhibition
# Assay type: biochemical
# Settings: Lineweaver-Burk plots, p-tyramine substrate
# Excerpt: The kinetic study by the Lineweaver–Burk plots, carried out to explicates the type of inhibition by compounds 7, 15 shown their significant inhibitory potential towards hMAO-A and hMAO-B, respectively. Reaction mixtures composing of five diverse concentrations of p-tyramine was used as a common substrate in the presence or absence of compounds.
# as §4
row,type of hMAO-A inhibition,Structure (SMILES)
1,competitive,O=C(/C=C/C=C/c1ccc2c(c1)OCO2)Nc1cccc2ccccc12 [Compound 7]

# Molecular target: T2, hMAO-A
# Assay: hMAO-A inhibitory activity, Amplex Red continuous fluorometric assay
# Assay type: biochemical
# Settings: recombinant hMAO-A, p-tyramine substrate, mean SEM
# Protocol: as §1, §2, §3, §4
row,IC50 [µM],Structure (SMILES)
1,15.38 ± 0.071,O=C(/C=C/C=C/c1ccc2c(c1)OCO2)Nc1cccc2ccccc12 [Compound 7]
2,16.11 ± 0.091,C=CCc1ccc(OC(=O)/C=C/C=C/c2ccc3c(c2)OCO3)c(OC)c1 [Compound 17c]

# Continued, compound first:
row,Structure (SMILES),IC50 [µM]
1,"O=C(/C=C/C=C/c1ccc2c(c1)OCO2)N1CCCCC1 [Piperine, reference compound]",19.01 ± 0.031
2,O=C(/C=C/C=C/c1ccc2c(c1)OCO2)N1CCOCC1 [Compound 9],22.19 ± 0.07
3,O=C(/C=C/C=C/c1ccc2c(c1)OCO2)Nc1ccc(Br)cc1 [Compound 5],60.19 ± 0.087

# Test system: not listed separately
# Assay: Hydrogen peroxide scavenging (H2O2) assay
# Settings: absorption at 230 nm, 10 min incubation, phosphate buffer pH 7.4; mean ± SEM, n = 3
# Protocol: H2O2 is quickly decomposed into oxygen and water and this could generate hydroxyl radicals (OH) that may commence DNA damage in the body and lipid peroxidation. The hydrogen peroxide inhibitory activity of newly synthesized compounds was assessed by the technique illustrated by Nakano and coworkers with some modifications. In phosphate buffer (40 mM pH 7.4) the solution of hydrogen peroxide (40 mM) was prepared and different concentrations of titled compounds (05–80 μg ml^−1) were added to H2O2 solution (2 ml). The concentration of hydrogen peroxide is determined by absorption at 230 nm using a spectrophotometer after 10 min of incubation. Blank reading was noted of phosphate buffer without H2O2. The percentage of hydrogen peroxide inhibition was anticipated by the formula [(Ab − At)/[…]] × 100, where Ab is the absorbance of the control and At is the absorbance of compounds/standard taken as L-ascorbic acid (05–80 μg ml^−1). UV/Vis Epoch ELISA reader was used to measure as a decrease in absorbance in the 96 wells (Table 5).
row,IC50 [µM],Structure (SMILES)
1,9.495 ± 0.045,O=C(/C=C/C=C/c1ccc2c(c1)OCO2)Nc1cccc2ccccc12 [Compound 7]
2,15.71 ± 0.014,C=CCc1ccc(OC(=O)/C=C/C=C/c2ccc3c(c2)OCO3)c(OC)c1 [Compound 17c]

# Further lines, the compound ahead of its results:
row,Structure (SMILES),IC50 [µM]
1,"O=C(/C=C/C=C/c1ccc2c(c1)OCO2)N1CCCCC1 [Piperine, reference compound]",11.33 ± 0.016
2,O=C(/C=C/C=C/c1ccc2c(c1)OCO2)N1CCOCC1 [Compound 9],13.98 ± 0.01
3,O=C(/C=C/C=C/c1ccc2c(c1)OCO2)Nc1ccc(Br)cc1 [Compound 5],8.279 ± 0.017

# Test system: not listed separately
# Assay: DPPH radicals scavenging activity
# Settings: absorbance at 517 nm, 30 min at 37 °C; mean ± SEM, n = 3
# Excerpt: Besides their inhibitory action on hMAO the antioxidant potential of synthesized compounds was investigated using 1,1-Diphenyl-2-picrylhydrazyl (DPPH) assay. DPPH was utilized as a stable free radical because free radicals simulate reactive nitrogen and oxygen species distressing neurological structure.
# The DPPH method is one of the most proficient techniques to assess the radical-scavenging action by a chain-breaking mechanism. […] DPPH is stable free radical on room temperature, however on acceptance of a hydrogen/electron radical it turns into a stable diamagnetic molecule. The scavenging activity of DPPH radical is assessed by the reduction in its optical density at 5l7 nm, rendered by antioxidants. This phenomenal feature of DPPH is due to the reaction among antioxidant compounds and radicals, leads to the scavenging of the free radical via donated hydrogen. It manifested visually as the color bleaches from purple to yellow. Therefore, DPPH is generally utilized as a substrate to estimate the ant oxidative potential. Different concentrations of around […] (25, 50, 75, and 100) µg ml^−1 of the titled derivatives were suspended in methanol and mixed with 5 ml of a 0.004% methanol solution of DPPH. Subsequently the all dilutions were subjected to incubation for 30 min at 37 °C temperature; finally, at 517 nm the absorbance was measured against a blank. Ascorbic acid was utilized as a reference while and all the experiments were performed in triplicate. […] DPPH free radical scavenging of compounds was calculated as scavenging activity for DPPH (%) = [(Ac − At)/Ac] × 100 Where Ac is the absorbance of the control reaction At is the absorbance of the test compound. The absorbance was measured with UV/Vis Epoch ELISA reader at 517 nm, and antioxidant activity was measured as a decrease in absorbance of DPPH·.
row,IC50 [µM],Structure (SMILES)
1,8.815 ± 0.019,O=C(/C=C/C=C/c1ccc2c(c1)OCO2)Nc1cccc2ccccc12 [Compound 7]
2,16.52 ± 0.012,C=CCc1ccc(OC(=O)/C=C/C=C/c2ccc3c(c2)OCO3)c(OC)c1 [Compound 17c]

# The next lines start with the compound.
row,Structure (SMILES),IC50 [µM]
1,"O=C(/C=C/C=C/c1ccc2c(c1)OCO2)N1CCCCC1 [Piperine, reference compound]",9.814 ± 0.053
2,O=C(/C=C/C=C/c1ccc2c(c1)OCO2)N1CCOCC1 [Compound 9],12.35 ± 0.021
3,O=C(/C=C/C=C/c1ccc2c(c1)OCO2)Nc1ccc(Br)cc1 [Compound 5],5.553 ± 0.007
